Results: patent publication US20100204116A1, “USE OF CALCITONIN AS ANTI-ANGIOGENIC AGENT” (priority 2007, published 2010)

Tests used:
CEM-SS cells = assay: Cytotoxicity (MTS cell viability) in the HIV-1 assay; conditions: CEM-SS cells plus peptide only, 10 micrograms per ml
HIV-1IIIB = assay: HIV-1 antiviral assay (CPE reduction, MTS) in CEM-SS cells; conditions: peptide 10 micrograms per ml, 6 days post-infection
[1] = tested on: hepatitis B virus (HBV) ayw strain; assay: HBV experimental assay system (secreted HBV DNA, TaqMan PCR); conditions: peptide 10 micrograms per ml; six days; HBV DNA in supernatant
[2] = tested on: Primary Human endothelial cells (HUVEC); assay: Endothelial cell migration assay; type: cell-based; conditions: peptide 10 micrograms per ml, 22 hours
TNF alpha = TNF alpha production assay (LPS-stimulated macrophages, ELISA); type: cell-based, human; conditions: peptide 10 micrograms per ml, lipopolysaccharide 200 ng/ml, overnight
Text: Not stimulated macrophages served as negative background control.

[3] = Cytotoxicity (CellTiter 96 cell viability) in the HCMV assay; conditions: human, MRC-5 cells (human embryonal lung fibroblasts)
Human A549 cells [4] = assay: Apoptosis prevention assay (C2 ceramide, Annexin-5); type: cell-based; conditions: A549 cells pretreated 30 min with peptide 10 micrograms per ml, then C2 ceramide
Human A549 cells [5] = assay: Apoptosis induction assay (Annexin-5); type: cell-based; conditions: peptide 10 micrograms per ml, 24 hours
RAW 264.7 cells = assay: Phagocytosis assay (Fluorescein-labeled Escherichia coli, flow cytometry); type: cell-based, mouse; conditions: peptide 10 micrograms per ml
Experimental: RAW 264.7 (Mouse leukaemic monocyte macrophage cell line) cells were obtained from ATCC and grown in RPMI 1640 medium containing 10% FBS. […] After the cells were incubated for additional 60 min at 37° C. and allowed to ingest the Fluorescein-labeled Escherichia coli bacteria, cells were fixed with 1% paraformaldehyde. The samples were then analyzed by flow cytometry to determine the amount of phagocytosis as a function of brightness (the greater the phagocytic activity, the more fluorescence in the macrophage population). Data are reported as % positive and the mean fluorescence intensity (MFI) of positively stained cells.

[6] = tested on: Human Peripheral Blood Mononuclear Cells (PBMC); assay: B cell proliferation assay (SAC plus Interleukin-2, 3H-thymidine); type: cell-based; conditions: peptide 10 micrograms per ml
spleen cells = assay: Th1/Th2 cytokine profiling assay (Ovalbumin-restimulated spleen cells, CBA kit); type: cell-based, Balb/c mice; conditions: peptide 10 micrograms per ml; Ovalbumin restimulation; 72 hours
Human A549 cells [7] = assay: Propidium iodide cell cycle assay; type: cell-based; conditions: peptide 10 micrograms per ml, 24 hours
[8] = tested on: Human Peripheral Blood Mononuclear Cells (PBMC); assay: T cell proliferation assay (PHA, 3H-thymidine); type: cell-based; conditions: peptide 10 micrograms per ml
HUVEC = assay: Endothelial tube formation assay; type: cell-based, human; conditions: peptide 10 micrograms per ml, 20 hours
Text: Positive control was vehicle only.

HCMV strain AD169 = assay: HCMV plaque reduction assay in MRC-5 cells; type: cell-based; conditions: peptide 10 micrograms per ml, 7-10 days
Text: Ganciclovir was used as positive control.

[9] = tested on: MRC-5 cells (human embryonal lung fibroblasts); assay: Cytotoxicity (CellTiter 96 cell viability) in the HCMV assay; conditions: MRC-5 cells; 6 days incubation; CellTiter 96

**Q.** What does the source list for `Cc1cn([C@H]2C[C@H](N=[N+]=[N-])[C@@H](CO)O2)c(=O)[nH]c1=O` [AZT, reference compound]?
**A.** % Cell viability (CEM-SS cells): 97%; % CPE reduction in HIV-1 infected CEM-SS cells (HIV-1IIIB): 99%

**Q.** For `CC[C@H](C)[C@H](NC(=O)[C@H](C)NC(=O)[C@@H](NC(=O)[C@H](CCC(N)=O)NC(=O)[C@@H]1CCCN1C(=O)[C@H](Cc1ccccc1)NC(=O)[C@@H](NC(=O)[C@H](Cc1c[nH]cn1)NC(=O)[C@H](Cc1ccccc1)NC(=O)[C@H](CCCCN)NC(=O)[C@H](CC(N)=O)NC(=O)[C@H](Cc1ccccc1)NC(=O)[C@H](CC(=O)O)NC(=O)[C@H](CCC(N)=O)NC(=O)[C@@H](NC(=O)[C@H](Cc1ccc(O)cc1)NC(=O)[C@@H](NC(=O)CNC(=O)[C@H](CC(C)C)NC(=O)[C@H](CCSC)NC(=O)[C@@H]1CSSC[C@H](N)C(=O)NCC(=O)N[C@@H](CC(N)=O)C(=O)N[C@@H](CC(C)C)C(=O)N[C@@H](CO)C(=O)N[C@@H]([C@@H](C)O)C(=O)N1)[C@@H](C)O)[C@@H](C)O)[C@@H](C)O)[C@@H](C)O)C(=O)NCC(=O)N[C@H](C(=O)NCC(=O)N[C@@H](C)C(=O)N1CCC[C@H]1C(N)=O)C(C)C` [Calcitonin], which “% inhibition of HBV replication in HEP G2 cells” value [1] is on record?
**A.** The value was 31.0%.

**Q.** What about the “% inhibition of migration” value [2] of the same compound?
**A.** Its value is 26%.

**Q.** And the “% of LPS induction” value (TNF alpha)?
**A.** The value was 93.4%.

**Q.** What about the viability at 144 h [3] of the same compound?
**A.** Its viability at 144 h is 100%.

**Q.** What about the “% prevention of ceramide induced apoptosis” value (Human A549 cells [4]) of the same compound?
**A.** The value was 32.7%.

**Q.** What about the “% of induction” value (Human A549 cells [5]) of the same compound?
**A.** Its value is 2.9%.

**Q.** And the “% of control phagocytosis” value (RAW 264.7 cells)?
**A.** Its value is 102.9%.

**Q.** What about the “% of SAC/IL2 induced control” value [6] of the same compound?
**A.** The value was 92.6%.

**Q.** What about the “IFNγ spleen cells; TH1 response (% of control)” value (spleen cells) of the same compound?
**A.** Its value is 63.7 % of control.

**Q.** What about the “IL-2 spleen cells (% of control)” value (spleen cells) of the same compound?
**A.** The value was 110.1 % of control.

**Q.** What about the “IL-4 spleen cells; TH2 response (% of control)” value (spleen cells) of the same compound?
**A.** The value was 0.0 % of control.

**Q.** And the “IL-5 spleen cells; TH2 response (% of control)” value (spleen cells)?
**A.** The value was 60.2 % of control.

**Q.** What about the “TNF-a spleen cells; TH1 response (% of control)” value (spleen cells) of the same compound?
**A.** The value was 116.4 % of control.

**Q.** What about the “% CPE reduction in HIV-1 infected CEM-SS cells” value (HIV-1IIIB) of the same compound?
**A.** The value was 0.0%.

**Q.** And the “Cell cycle analysis G0/G1” value (Human A549 cells [7])?
**A.** Its value is 57.0.

**Q.** What about the “Cell cycle analysis G2/M” value (Human A549 cells [7]) of the same compound?
**A.** The value was 10.4.

**Q.** And the “Cell cycle analysis S” value (Human A549 cells [7])?
**A.** The value was 32.6.

**Q.** And the “% of PHA induced Control” value [8]?
**A.** The value was 87.4%.

**Q.** And the “% inhibition of tube formation” value (HUVEC)?
**A.** Its value is 18%.

**Q.** And the “% plaque reduction” value (HCMV strain AD169)?
**A.** Its value is 5.8%.

**Q.** With `Nc1nc(O)c2ncn(COC(CO)CO)c2n1` [Ganciclovir, reference compound] as the compound, how does the “% Cell viability” value [9] read?
**A.** The value was 100%.
